From paper PMC12124432, “Antimicrobial Peptide‐Peptoid Macrocycles from the Polymyxin B2 Chemical Space” (Angewandte Chemie (International Ed. in English), 2025)
Bridge positions count the residues as written; N and C are the ends. Square brackets hold non-standard residues; d marks the D form. Peptide text beside a SMILES is read from it. * marks the point of attachment. N(3-phenylpropyl)Gly = O=C(O)CNCCCc1ccccc1; Gly(NCH2CH2Ph) = O=C(O)CNCCc1ccccc1; Gly(N-2-aminoethyl) = NCCNCC(=O)O; Gly(N(CH2)3NH2) = NCCCNCC(=O)O; Gly(N-cPent) = O=C(O)CNC1CCCC1; Heptanoyl = CCCCCCC(=O)*; Nphe = O=C(O)CNCc1ccccc1; Octanoyl = CCCCCCCC(=O)*; Dab = NCC[C@H](N)C(=O)O; NPrGly = CCCNCC(=O)O

Tests used:
[1] = test system: P. aeruginosa PAO1; experiment: Transmission electron microscopy (TEM); type: cell-based, Pseudomonas aeruginosa; conditions: 10 × MIC, 12.5% MH, 2 h incubation at 37 °C, OD600 = 0.5
Method: Specific Fluorescence Enhacement
Concentration of Dansyl-PMB (μM)
Figure S9. Extracted data from the specific fluorescence enhancement data (Figure S8) from DsPMB at 485 nm. The plateau is reached at approximately 2.5 µM. Each data point represent mean ± SD, n =3.
15. Transmission Electron Microscopy (TEM)
Transmission electron microscopy was evaluated at a high cell density (10^8 CFU) and a concentration (10x MIC) that killed the bacteria, but not all of them. An overnight culture of P. aeruginosa PAO1 was regrown until exponential phase (1 mL, OD600 = 0.5) in 12.5% MH medium pH 7.4, treated with the compounds, in diluted MH medium (at pH 7.4) and incubated for 2 hours at 37 °C. Just before the samples were further prepared for the microscopy, surviving bacteria were quantified by plating 10-fold dilutions of samples in sterilized normal saline (NaCl 0.9 %) on LB agar plates. LB agar plates were incubated at 37 °C for 10 hours and the number of individual colonies was counted at each time-point, to monitor partial bacteria killing. The assay was performed in triplicates. Each bacteria sample was centrifuged at 12’000 rpm for 3 min and the supernatant was discarded. The samples were fixed overnight with 2.5% glutaraldehyde (Agar Scientific, Stansted, Essex, UK) in 0.15 M HEPES (Fluka, Buchs, Switzerland) with an osmolarity of 630 mOsm and adjusted to a pH of 7.44. […]

[2] = Dansyl-polymyxin (DsPMB) displacement assay; type: binding, Pseudomonas aeruginosa; conditions: 37 °C, 2.5 µM DsPMB, LPS 3 μg/mL, emission 485 nm; mean ± SD, n = 3
Method: 14. Dansyl-Polymyxin (DsPMB) Displacement Assay
Saturation determination. Dansyl-polymyxin (DsPMB) in water (1.5 mg/mL) and lyophilized lipopolysaccharides from P. aeruginosa were obtained from Merck. LPS were prepared as a 1 mg/mL stock solution in mQ water and stored at 4 °C. The fluorescence saturation of DsPMB with LPS was first determined, by titration (0.25 μM increments, up to 5 μM) of the DsPMB into a 3 μg/mL of LPS (10 mM Tris, 10 mM NaCl buffer, pH 7.4), at 37 °C. The fluorescence was recorded with a Jasco spectrofluorometer FP-8300, with the excitation at λex = 340 nm (5 nm slit width) and recorded from 420 to 650 nm. The fluorescence was recorded two minutes after each addition. Saturation was graphically determined, at a concentration of D sPMB ≈ 2.5 μM (λem = 485 nm). Each measurement was determined in triplicates.
Displacement assay. The displacement effect of the various peptides was determined by measuring the reduction of fluorescence intensity, at 37 °C. Initially, DsPMB (2.5 μM) was mixed with LPS (3 μg/mL) and let it react for 15 minutes before recording the fluorescence […]
intensity (at λem = 485 nm and λex = 340 nm). Then, the peptide was titrated (1 μM increments, up to 10 μM) into the DsPMB/LPS mixture, and the fluorescence was recorded two minutes after the compound addition. The decrease in fluorescence was interpreted as the displacement of DsPMB from the LPS due to competitive binding by the peptide.[12,13] Specific Fluorescence Enhancement
Figure S8. Fluorescence emission of dansyl-polymyxin (DsPMB) in presence of lipopolysaccharide (LPS) extracted from P. aeruginosa (3 µg/mL) in TRIS/NaCl buffer (10 mM, pH 7.4). The fluorophore was excited at 340 nm (5 nm slit width) and recorded from 420 to 650 nm. The data represent mean value from three measurement. Specific fluorescence represents the emission of DsPMB with the non-specific fluorescence (no LPS) deduced.

Compound	TEM pattern of treated P. aeruginosa cells [1]	Binding to lipopolysaccharide (dansyl-PMB fluorescence displacement) [2]
CCCCCCCC(=O)N(CCc1ccccc1)CC(=O)N[C@@H](CCCCN)C(=O)N[C@@H](CC(N)=O)C(=O)N[C@H]1CCNC(=O)[C@H](CCCCN)NC(=O)CN(CCCN)C(=O)[C@H](CCCCN)NC(=O)CN(CCC)C(=O)[C@H](CCCCN)NC1=O [EB12] (Octanoyl-[Gly(NCH2CH2Ph)]KN[Dab]K[NPrGly]K[Gly(N(CH2)3NH2)]K; lactam 4-C)	aggregation of intracellular contents	to a similar extent as PMB2 itself
CCCCCCC(=O)N[C@H](C(=O)N(CCN)CC(=O)N(CCCc1ccccc1)CC(=O)N[C@H]1CCNC(=O)[C@H](CCCCN)NC(=O)CN(CCCN)C(=O)[C@H](CCCCN)NC(=O)CNC(=O)[C@H](CCCCN)NC1=O)C(C)C [EB13] (Heptanoyl-V[Gly(N-2-aminoethyl)][N(3-phenylpropyl)Gly][Dab]KGK[Gly(N(CH2)3NH2)]K; lactam 4-C)	aggregation of intracellular contents	to a similar extent as PMB2 itself
CCCCCCCC(=O)N[C@@H](CCCCN)C(=O)N(CC(=O)N[C@@H](CCCCN)C(=O)N[C@H]1CCNC(=O)[C@H](CCCCN)NC(=O)CN(C2CCCC2)C(=O)CN(CCN)C(=O)[C@H](CCCCN)NC(=O)[C@H](CC(N)=O)NC1=O)Cc1ccccc1 [EB21] (Octanoyl-K[Nphe]K[Dab]NK[Gly(N-2-aminoethyl)][Gly(N-cPent)]K; lactam 4-C)		to a similar extent as PMB2 itself
